Assay results taken from patent US20120009280A1, “METHOD OF REDUCING THE RATE OF DEGRADATION OF A BIOLOGICAL MATERIAL” (Bio-Energy Ingredients Limited, priority 2009, published 2012).

Columns and labels:
[1] = pH of suspensions of grain samples in distilled water or PBS; details: for pH: 1% (w/w) in distilled water
Method: The untreated sample (A) was compared visually against the corresponding quicklime-treated sample (B).
On Day 7, 10 g amounts of each sample were suspended in either 90 ml PBS or 90 ml sterile distilled water and shaken for 10 minutes. The pH of each suspension was then measured and compared.
On Day 9, 10 g of each sample was suspended in 90 ml PBS and shaken for 10 minutes. The pH was measured.

yeast = test: Yeast count of spent brewer's / wet distiller's grains stored at ambient temperature; format: cell-based

Work on `[O]=[Ca]` [calcium oxide] yielded a pH ([1]; 0.5% CaO (w/w), day 1) of 7.97, a pH ([1]; 0.5% CaO (w/w), day 2) of 8.06 and a pH ([1]; 0.5% CaO (w/w), day 3) of 7.63. For the same molecule, the pH ([1]; 0.5% CaO (w/w), day 6) was 7.38, the pH ([1]; 0.5% CaO (w/w), day 8) was 7.80 and the pH ([1]; 1.0% CaO (w/w), day 1) was 8.86. It also gave a pH ([1]; 1.0% CaO (w/w), day 2) of 8.82, a pH ([1]; 1.0% CaO (w/w), day 3) of 9.19 and a pH ([1]; 1.0% CaO (w/w), day 6) of 9.21. It also gave a pH ([1]; 1.0% CaO (w/w), day 8) of 7.89, a pH ([1]; 1.0% CaO (w/w), day 10) of 8.27 and a pH ([1]; 1.5% CaO (w/w), day 1) of 9.10. The pH ([1]; 1.5% CaO (w/w), day 2) was 9.15, the pH ([1]; 1.5% CaO (w/w), day 3) was 9.95 and the pH ([1]; 1.5% CaO (w/w), day 6) was 9.84. It also gave a pH ([1]; 1.5% CaO (w/w), day 8) of 9.10, a pH ([1]; 1.5% CaO (w/w), day 10) of 10.84 and a pH ([1]; 2.0% CaO (w/w), day 1) of 10.68. It also gave a pH ([1]; 2.0% CaO (w/w), day 2) of 10.10, a pH ([1]; 2.0% CaO (w/w), day 3) of 9.48 and a pH ([1]; 2.0% CaO (w/w), day 6) of 11.22. It also gave a pH ([1]; 2.0% CaO (w/w), day 8) of 9.76, a pH ([1]; 2.0% CaO (w/w), day 10) of 9.97 and a pH ([1]; 2.5% CaO (w/w), day 1) of 11.48. The pH ([1]; 2.5% CaO (w/w), day 2) was 11.08, the pH ([1]; 2.5% CaO (w/w), day 3) was 11.41 and the pH ([1]; 2.5% CaO (w/w), day 6) was 11.55. The pH ([1]; 2.5% CaO (w/w), day 8) was 10.29, the pH ([1]; 2.5% CaO (w/w), day 10) was 8.87 and the pH ([1]; 5% CaO (w/w) powder, week 1) was 11.36. It also gave a pH ([1]; 5% CaO (w/w) powder, week 2) of 11.00, a pH ([1]; 5% CaO (w/w) powder, week 3) of 12.20 and a pH ([1]; 5% CaO (w/w) powder, week 4) of 11.61. For the same molecule, the pH ([1]; 5% CaO (w/w) powder, week 5) was 11.34, the “pH of treated wet distiller's grains” value ([1]; calcium oxide 0.5% (w/w), Example 14) was “below 8” and the “Yeast Count” value (yeast; 5% CaO (w/w) powder, week 1) was 10 cfu/gram. For the same molecule, the “Yeast Count” value (yeast; 5% CaO (w/w) powder, week 2) was 10 cfu/gram, the “Yeast Count” value (yeast; 5% CaO (w/w) powder, week 3) was 113 cfu/gram and the “Yeast Count” value (yeast; 5% CaO (w/w) powder, week 5) was 10 cfu/gram. The “Yeast Count” value (yeast; wet distiller's grains, 0.5% CaO (w/w), day 1) was <10 cfu/gram, the “Yeast Count” value (yeast; wet distiller's grains, 0.5% CaO (w/w), day 3) was <10 cfu/gram and the “Yeast Count” value (yeast; wet distiller's grains, 0.5% CaO (w/w), day 6) was 40000 cfu/gram. For the same molecule, the “Yeast Count” value (yeast; wet distiller's grains, 0.5% CaO (w/w), day 8) was <10 cfu/gram, the “Yeast Count” value (yeast; wet distiller's grains, 1.0% CaO (w/w), day 2) was <10 cfu/gram and the “Yeast Count” value (yeast; wet distiller's grains, 1.0% CaO (w/w), day 3) was <10 cfu/gram. The “Yeast Count” value (yeast; wet distiller's grains, 1.0% CaO (w/w), day 6) was <10 cfu/gram, the “Yeast Count” value (yeast; wet distiller's grains, 1.0% CaO (w/w), day 8) was <10 cfu/gram and the “Yeast Count” value (yeast; wet distiller's grains, 1.0% CaO (w/w), day 10) was 20 cfu/gram. For the same molecule, the “Yeast Count” value (yeast; wet distiller's grains, 1.5% CaO (w/w), day 1) was <10 cfu/gram, the “Yeast Count” value (yeast; wet distiller's grains, 1.5% CaO (w/w), day 2) was <10 cfu/gram and the “Yeast Count” value (yeast; wet distiller's grains, 1.5% CaO (w/w), day 3) was <10 cfu/gram. For the same molecule, the “Yeast Count” value (yeast; wet distiller's grains, 1.5% CaO (w/w), day 6) was <10 cfu/gram, the “Yeast Count” value (yeast; wet distiller's grains, 1.5% CaO (w/w), day 8) was <10 cfu/gram and the “Yeast Count” value (yeast; wet distiller's grains, 2.0% CaO (w/w), day 1) was <10 cfu/gram. The “Yeast Count” value (yeast; wet distiller's grains, 2.0% CaO (w/w), day 3) was <10 cfu/gram, the “Yeast Count” value (yeast; wet distiller's grains, 2.0% CaO (w/w), day 6) was <10 cfu/gram and the “Yeast Count” value (yeast; wet distiller's grains, 2.0% CaO (w/w), day 8) was <10 cfu/gram. The “Yeast Count” value (yeast; wet distiller's grains, 2.0% CaO (w/w), day 10) was <10 cfu/gram, the “Yeast Count” value (yeast; wet distiller's grains, 2.5% CaO (w/w), day 1) was <10 cfu/gram and the “Yeast Count” value (yeast; wet distiller's grains, 2.5% CaO (w/w), day 2) was <10 cfu/gram. For the same molecule, the “Yeast Count” value (yeast; wet distiller's grains, 2.5% CaO (w/w), day 3) was <10 cfu/gram, the “Yeast Count” value (yeast; wet distiller's grains, 2.5% CaO (w/w), day 6) was <10 cfu/gram and the “Yeast Count” value (yeast; wet distiller's grains, 2.5% CaO (w/w), day 7) was 10 cfu/gram. For the same molecule, the “Yeast Count” value (yeast; wet distiller's grains, 2.5% CaO (w/w), day 8) was <10 cfu/gram, the “Yeast Count” value (yeast; wet distiller's grains, 2.5% CaO (w/w), day 10) was <10 cfu/gram and the “Yeast Count” value (yeast; wet distiller's grains, 2.5% CaO (w/w), day 21) was 53,000 cfu/gram. The “Yeast Count” value (yeast; wet distiller's grains, 2.5% CaO (w/w), day 56) was 115,000 cfu/gram and the “Yeast Count” value (yeast; wet distiller's grains, 5.0% CaO (w/w), day 7) was 10 cfu/gram.
